Measurements published in patent US20220142967A1, “Methods and Compositions for the Treatment of Multiple Sclerosis” (SYMBIONYX PHARMACEUTICALS INC, priority 2018, published 2022).
Structures can show the parent of a compound that is named as a salt.

Experiments:
[1] = test system: cytokine-treated neonatal human epidermal keratinocytes (HEK); experiment: qPCR of pro-inflammatory and antioxidant genes in cytokine-treated keratinocytes; type: cell-based; conditions: 4 μg/ml, 24 h, IL-17A/IL-22/TNFα treated HEK
Experimental: A separate assay study was conducted on cytokine-treated neonatal human epidermal keratinocytes (HEK) looking at the expression impact of IDMF and dimethyfumarate (DMF) on key pro-inflammatory and antioxidant genes. In preparation for the assay, HEK (p2; Cell Applications, San Diego) were cultured at optimal conditions [keratinocyte growth medium supplemented with KGM-Gold Bullet kit (Lonza, Switzerland)] to form a segmented monolayer. A cytokine mix of IL-17A/IL-22/TNFα (100 ng/ml; 100 ng/ml; 10 ng/ml; Antigenix, Huntington Station, N.Y.) was added and the cell cultures incubated for 24 h. […] Thereafter, each test material was added to the cultures at 4 μg/ml (final concentration) in triplicate and the cultures incubated for a further 24 hours.
After the 24-hour incubation with the test materials, the cells were observed through a Nikon Eclipse TS100 inverted microscope. No gross morphological changes were recorded. RNA was then extracted and purified with NucleoSpin RNA II kit from Machery-Nagel, Bethlehem, Pa., using QiaCube robotic station (Qiagen, Valencia, Calif.). Purified total RNA was assessed at 260 nm and 280 nm with NanoDrop Lite (Thermo Fisher Scientific, Waltham, Mass.), pure samples with A260A/280 and A260/A230 ratios of >1.7 were standardized and the expression of the genes of interest (Table 3) was measured by real-time quantitative PCR with BioRad iCycler iQ Detection System using custom-made PCR arrays (Qiagen, Valencia, Calif.; part #24caph12190), 5×All-In-One 1st Strand cDNA Synthesis Mix (Bioland Scientific, Paramount, Calif.) and 2×qPCR Master Mix (Bioland). Efficiency ΔΔCt method was used for quantification of results, after the normalization of gene expression to GAPDH/PPIA housekeeping gene. Genes were considered differentially expressed if the level of expression was reasonably high (less than 30 cycles to detect) and the modulation was >1.7. […] Even assuming IDMF fully metabolizes to MMF, there is still considerably more MMF from DMF as opposed to the same amount, based on weight, of IDMF.

[2] = test system: human fetal astrocytes derived from cerebral cortex; experiment: Comparative RT-PCR evaluation of selected genes in astrocytes; type: cell-based
Experimental: Experiments were performed using human fetal astrocytes derived from cerebral cortex (cat. no. 882A-05f; Cell Applications, Sant Diego, Calif.). Cells were grown to subconfluence in human astrocyte growth medium (cat. no. 820-500, Cell Applications). […] Test materials were added to subconfluent cultures at a concentration of 2.5 μM and cells were incubated for 24 hours.
RNA was extracted following the incubation period using the RNAeasy Mini Plus kit (Qiagen, Hilden, Germany) and robotic Qiacube Connect station (Qiagen). Samples were shipped on dry ice to the Thermo Fisher Microarray Research Services Laboratory (Santa Clara, Calif.) for transcriptome analysis. RNA quality analysis was performed upon sample receipt using the NanoDrop Lite (Thermo Fisher Scientific, Waltham, Mass.). All samples had 260/280 nm absorbance ratios higher than 1.90, consistent with high-purity RNA.
The expression of selected genes was further evaluated using RT-PCR. cDNA was prepared using the AzuraQuant cDNA kit (Azura Genomics, Raynham, Mass.) and PCR reactions were performed using the BioRad iCycler iQ Detection System with Fast Green qPCR Master Mix—Fluor (Azura Genomics). PCR primers were purchased from Realtimeprimers (Elkins Park, Pa.). The ΔΔCt method [Livak K. J. and Schmittgen T. D. Analysis of relative gene expression data using real-time quantitative PCR and the 2(−Delta Delta C(T)) Method. Methods (San Diego, Calif.) 25(4):402-408, 2001]. was used to estimate fold changes with cycle threshold values normalized based upon the expression of glyceraldehyde-3-phosphate dehydrogenase (GAPDH).

[3] = target: T1, carboxylesterase 2 (CES2) (Homo sapiens, UniProt O00748); experiment: Carboxylesterase hydrolysis IDMF v DRF; type: in vitro ADME; conditions: 20 μl of 1 mg/ml CES2, 37° C., pH 7.4
T1 sequence (O00748 27-559): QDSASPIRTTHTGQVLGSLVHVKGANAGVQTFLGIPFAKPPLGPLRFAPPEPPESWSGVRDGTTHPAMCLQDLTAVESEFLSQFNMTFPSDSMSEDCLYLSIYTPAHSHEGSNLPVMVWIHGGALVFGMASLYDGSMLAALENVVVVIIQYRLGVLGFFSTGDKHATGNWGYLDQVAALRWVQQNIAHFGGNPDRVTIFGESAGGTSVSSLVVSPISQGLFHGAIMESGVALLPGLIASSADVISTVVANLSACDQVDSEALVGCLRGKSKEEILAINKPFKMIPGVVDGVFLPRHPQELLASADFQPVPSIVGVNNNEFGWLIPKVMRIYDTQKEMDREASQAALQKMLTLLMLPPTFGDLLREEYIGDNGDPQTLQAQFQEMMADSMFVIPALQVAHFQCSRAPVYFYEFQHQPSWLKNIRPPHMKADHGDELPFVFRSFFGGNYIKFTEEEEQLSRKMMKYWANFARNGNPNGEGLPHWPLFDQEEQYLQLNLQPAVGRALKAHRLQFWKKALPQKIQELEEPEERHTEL
Experimental: 20 μl of 1 mg/ml carboxylesterase 2 (CES2) was added to each solution and the solutions incubated at 37° C. for the time periods set forth in Table 5. […] Although tolerable for normal patients, HES is undesirable and detrimental for those individuals have kidney and/or liver issues

- remaining parent compound ([3]; 0 minutes): 1.086 mM
- remaining parent compound ([3]; 15 minutes): 0.113 mM
Compound: COC(=O)/C=C/C(=O)O[C@H]1CO[C@H]2[C@@H]1OC[C@H]2OC(=O)/C=C/C(=O)OC [IDMF, isosorbide di-(methyl fumarate)]
- CXCL3 fold change [1]: −1.1 fold
- IL8 fold change [1]: 1.4 fold
- NFE2L2 fold change [1]: 2.6 fold
- PTGS2 fold change [1]: 1.2 fold
- OSGIN1 expression ([2]; FIG. 11(B)): enhancing expression
- expression of key MS-associated genes (IL-6, ICAM1, MALT1, TNFAIP3, IRF1, CXCL8) ([2]; FIGS. 11(C) through 11(H)): marked suppression
